Laboratory results published in ChEMBL document CHEMBL4507295 (2021).

Key:
[1] = target: D(1B) dopamine receptor (Homo sapiens) (UniProt P21918); conditions: Compound concentration 10.0 uM
[2] = Inhibition of Atrial Natriuretic Factor (ANF) at 10 µM in the Eurofins-Panlabs radioligand binding assay (Eurofins_assay_211000); conditions: Cavia porcellus
[3] = target: Melanocortin receptor 5 (Homo sapiens) (UniProt P33032); test: Inhibition of Melanocortin MC5 at 10 µM in the Eurofins-Panlabs radioligand binding assay (Eurofins_assay_251400); design: ligand concentration 0.035 nM; conditions: Compound concentration 10.0 uM
[4] = target: Glucocorticoid receptor (Homo sapiens) (UniProt P04150); test: Glucocorticoid Eurofins-Panlabs radioligand binding assay; conditions: Compound concentration 10.0 uM
[5] = target: Melatonin receptor (Gallus gallus) (UniProt P49288+P51050+P49285); test: Melatonin MT, Non-Selective Eurofins-Panlabs radioligand binding assay; type: protein assay; conditions: Compound concentration 10.0 uM
[6] = target: Epidermal growth factor receptor (Homo sapiens) (UniProt P00533); test: Protein Tyrosine Kinase, EGF Receptor Eurofins-Panlabs enzyme assay; design: substrate with concentration 10 µg/mL Poly(Glu:Tyr), incubation time 60 min, incubation temperature 25 °C; conditions: Compound concentration 10.0 uM
[7] = species: Homo sapiens; test: Inhibition of Phosphodiesterase PDE4 at compound concentration of 10.0 uM in the Eurofins-Panlabs enzyme assay (Eurofins_assay_154000); type: protein assay; design: substrate with concentration 1.01 uM [3 H]cAMP + cAMP, incubation time 20 min, incubation temperature 25 C; conditions: Compound concentration […]
[8] = target: Endothelin-1 receptor (Homo sapiens) (UniProt P25101); conditions: Compound concentration 10.0 uM
[9] = target: Sodium-dependent noradrenaline transporter (Homo sapiens) (UniProt P23975); conditions: Compound concentration 10.0 uM
[10] = target: T1, Tyrosine-protein phosphatase non-receptor type 2 (Homo sapiens) (UniProt P17706); test: (§1) Protein Tyrosine Phosphatase, PTPN2 (TCPTP) Eurofins-Panlabs enzyme assay; design: substrate with concentration DiFMUP, incubation time 60 min, incubation temperature 37 °C
T1 sequence (whole entry): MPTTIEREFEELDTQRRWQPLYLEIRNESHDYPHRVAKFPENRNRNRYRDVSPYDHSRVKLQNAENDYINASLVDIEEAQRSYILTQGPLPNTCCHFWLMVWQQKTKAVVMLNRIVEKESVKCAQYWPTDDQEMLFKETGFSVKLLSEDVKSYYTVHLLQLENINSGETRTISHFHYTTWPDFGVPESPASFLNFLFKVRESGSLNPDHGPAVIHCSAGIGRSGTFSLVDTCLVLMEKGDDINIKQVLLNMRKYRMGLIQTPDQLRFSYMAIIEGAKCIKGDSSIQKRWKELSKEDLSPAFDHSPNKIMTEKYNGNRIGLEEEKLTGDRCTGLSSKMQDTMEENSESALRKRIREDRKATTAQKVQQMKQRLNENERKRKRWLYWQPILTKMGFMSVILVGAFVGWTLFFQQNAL

[11] = target: Tyrosine-protein phosphatase non-receptor type 2 (Homo sapiens, UniProt P17706); test: as §1; design: substrate with concentration DiFMUP, incubation time 60 min, incubation temperature 37 °C
[12] = target: Peroxisome proliferator-activated receptor gamma (Homo sapiens) (UniProt P37231); test: PPARgamma Eurofins-Panlabs radioligand binding assay; design: ligand concentration 5 nM, non-specific ligand with concentration 0.5 µM L-797773, incubation time 18 h, incubation temperature 15 °C; conditions: Compound concentration 10.0 uM
[13] = target: Endothelin receptor type B (Homo sapiens) (UniProt P24530); conditions: Compound concentration 10.0 uM
[14] = target: Caspase-1 (Homo sapiens) (UniProt P29466); test: Inhibition of Peptidase, CASP1 (Caspase 1) at 10 µM in the Eurofins-Panlabs enzyme assay (Eurofins_assay_163000); conditions: Compound concentration 10.0 uM
[15] = target: Vasoactive intestinal polypeptide receptor 1 (Homo sapiens) (UniProt P32241); test: Inhibition of Vasoactive Intestinal Peptide VIP1 at 10 µM in the Eurofins-Panlabs radioligand binding assay (Eurofins_assay_287010); conditions: Compound concentration 10.0 uM
[16] = target: cGMP-specific 3',5'-cyclic phosphodiesterase (Homo sapiens) (UniProt O76074); conditions: Compound concentration 100.0 uM
[17] = species: Rattus norvegicus; test: Protein Serine/Threonine Kinase, PKC, Non-Selective Eurofins-Panlabs enzyme assay; conditions: Compound concentration 10.0 uM
[18] = target: Glutamate NMDA receptor (Rattus norvegicus) (UniProt P35439+Q00959+Q00960+Q00961+Q62645+Q8VHN2+Q9R1M7); conditions: Compound concentration 10.0 uM
[19] = target: B1 bradykinin receptor (Homo sapiens) (UniProt P46663); test: Bradykinin B1 Eurofins-Panlabs radioligand binding assay; conditions: Compound concentration 10.0 uM
[20] = target: Histamine H4 receptor (Homo sapiens) (UniProt Q9H3N8); test: Histamine H4 Eurofins-Panlabs radioligand binding assay; conditions: Compound concentration 10.0 uM
[21] = target: Phosphodiesterase PDE1 (Bos taurus) (UniProt Q01061+P14100+A0A3Q1MCV4); test: Phosphodiesterase PDE1 Eurofins-Panlabs enzyme assay; type: protein assay; design: substrate with concentration [3H] cAMP + cAMP, incubation time 20 min, incubation temperature 25 °C; conditions: Compound concentration 100.0 uM
[22] = target: Glutamate (NMDA/AMPA/Kainate) (Rattus norvegicus) (UniProt P35439+Q00959+Q00960+Q00961+Q62645+Q8VHN2+Q9R1M7+P22756+Q9ULK0+Q01812+P19491+P19492+P19493+P42260+P42264+P19490+Q63273+O43424); test: Glutamate, Non-Selective Eurofins-Panlabs radioligand binding assay; type: protein-complex assay; design: ligand concentration 3.75 nM; conditions: Compound concentration 10.0 uM
[23] = target: D(3) dopamine receptor (Homo sapiens) (UniProt P35462); conditions: Compound concentration 10.0 uM
[24] = target: Neuromedin-K receptor (Homo sapiens) (UniProt P29371); test: Tachykinin NK3 Eurofins-Panlabs radioligand binding assay; design: ligand concentration 0.8 nM; conditions: Compound concentration 10.0 uM
[25] = target: hERG (KCNH2) potassium channel (Homo sapiens, UniProt Q12809); test: Potassium Channel hERG Eurofins-Panlabs radioligand binding assay; design: ligand concentration 0.05 nM, non-specific ligand with concentration 1 µM L-706,000, incubation time 75 min, incubation temperature 25 °C; conditions: HEK-293 cells expressing recombinant human hERG, probe [S35] L-706,000 (radioligand, 0.05 nM), compound concentration 10 uM
[26] = species: Rattus norvegicus; test: Potassium Channel [KA] Eurofins-Panlabs radioligand binding assay; design: ligand concentration 0.01 nM; conditions: Compound concentration 10.0 uM
[27] = target: T2, Muscarinic acetylcholine receptor M1 (Homo sapiens) (UniProt P11229); test: Agonism inflection point assay
T2 sequence (whole entry): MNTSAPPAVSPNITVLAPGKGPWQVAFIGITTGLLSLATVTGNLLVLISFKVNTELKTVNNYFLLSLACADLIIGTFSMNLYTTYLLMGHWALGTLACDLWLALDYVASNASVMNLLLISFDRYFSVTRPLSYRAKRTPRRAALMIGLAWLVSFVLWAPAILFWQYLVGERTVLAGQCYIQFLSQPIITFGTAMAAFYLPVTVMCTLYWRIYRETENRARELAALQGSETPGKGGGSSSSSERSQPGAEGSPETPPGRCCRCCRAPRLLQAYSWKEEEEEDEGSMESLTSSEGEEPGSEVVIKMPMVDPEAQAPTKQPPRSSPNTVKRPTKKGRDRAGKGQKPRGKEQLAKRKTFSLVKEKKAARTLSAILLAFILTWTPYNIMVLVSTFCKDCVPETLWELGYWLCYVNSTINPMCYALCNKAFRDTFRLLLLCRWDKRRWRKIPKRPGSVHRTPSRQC

[28] = species: Homo sapiens; test: Prostanoid, Thromboxane A2 (TP) Eurofins-Panlabs radioligand binding assay; design: ligand concentration 5 nM, non-specific ligand with concentration 1 µM SQ-29548, incubation time 30 min, incubation temperature 25 °C; conditions: Compound concentration 10.0 uM
[29] = target: Tyrosine-protein kinase Blk (Homo sapiens) (UniProt P51451); conditions: Compound concentration 1000.0 nM

Endothelin receptor type B (Homo sapiens), sequence (P24530 whole entry): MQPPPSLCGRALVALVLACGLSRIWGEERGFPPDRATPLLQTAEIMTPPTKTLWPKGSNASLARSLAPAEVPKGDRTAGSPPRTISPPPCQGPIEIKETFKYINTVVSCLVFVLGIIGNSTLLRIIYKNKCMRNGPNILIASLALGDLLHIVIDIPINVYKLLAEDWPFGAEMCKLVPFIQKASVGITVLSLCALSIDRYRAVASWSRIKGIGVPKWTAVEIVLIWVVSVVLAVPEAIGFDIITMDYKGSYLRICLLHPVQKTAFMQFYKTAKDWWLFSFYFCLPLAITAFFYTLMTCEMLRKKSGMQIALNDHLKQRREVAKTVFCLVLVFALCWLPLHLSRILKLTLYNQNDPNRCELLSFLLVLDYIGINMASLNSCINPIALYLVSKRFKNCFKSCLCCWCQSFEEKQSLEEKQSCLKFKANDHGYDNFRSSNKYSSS
Phosphodiesterase PDE1 (Bos taurus), sequence (Q01061 whole entry): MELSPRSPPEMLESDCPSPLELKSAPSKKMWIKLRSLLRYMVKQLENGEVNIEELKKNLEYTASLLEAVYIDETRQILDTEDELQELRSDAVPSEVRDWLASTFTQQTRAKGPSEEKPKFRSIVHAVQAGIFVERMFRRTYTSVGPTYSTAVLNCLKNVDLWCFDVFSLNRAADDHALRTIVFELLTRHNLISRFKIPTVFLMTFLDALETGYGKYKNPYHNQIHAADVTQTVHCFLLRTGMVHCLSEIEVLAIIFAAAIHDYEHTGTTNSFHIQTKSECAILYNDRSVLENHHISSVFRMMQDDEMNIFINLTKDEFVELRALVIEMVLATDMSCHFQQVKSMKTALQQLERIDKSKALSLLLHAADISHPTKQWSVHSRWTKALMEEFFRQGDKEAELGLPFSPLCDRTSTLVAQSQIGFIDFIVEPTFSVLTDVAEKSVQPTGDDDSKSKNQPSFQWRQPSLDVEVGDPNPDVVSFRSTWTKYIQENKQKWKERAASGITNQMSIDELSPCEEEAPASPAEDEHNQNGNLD
Phosphodiesterase PDE1 (Bos taurus), sequence (P14100 whole entry): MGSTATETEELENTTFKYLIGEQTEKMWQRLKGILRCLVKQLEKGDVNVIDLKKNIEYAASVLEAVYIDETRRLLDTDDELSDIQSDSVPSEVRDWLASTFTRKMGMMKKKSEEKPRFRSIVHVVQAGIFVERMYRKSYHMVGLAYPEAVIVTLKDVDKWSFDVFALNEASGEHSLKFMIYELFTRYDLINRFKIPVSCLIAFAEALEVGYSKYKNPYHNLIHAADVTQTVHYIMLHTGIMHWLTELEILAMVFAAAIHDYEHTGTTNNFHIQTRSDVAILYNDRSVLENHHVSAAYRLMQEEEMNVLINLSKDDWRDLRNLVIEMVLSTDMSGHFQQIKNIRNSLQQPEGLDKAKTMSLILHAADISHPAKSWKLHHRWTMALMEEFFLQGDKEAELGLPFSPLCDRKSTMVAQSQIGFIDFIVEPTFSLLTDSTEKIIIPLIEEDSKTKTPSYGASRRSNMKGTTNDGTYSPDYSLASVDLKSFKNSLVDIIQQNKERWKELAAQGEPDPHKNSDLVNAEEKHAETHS
Phosphodiesterase PDE1 (Bos taurus), sequence (A0A3Q1MCV4 1-648): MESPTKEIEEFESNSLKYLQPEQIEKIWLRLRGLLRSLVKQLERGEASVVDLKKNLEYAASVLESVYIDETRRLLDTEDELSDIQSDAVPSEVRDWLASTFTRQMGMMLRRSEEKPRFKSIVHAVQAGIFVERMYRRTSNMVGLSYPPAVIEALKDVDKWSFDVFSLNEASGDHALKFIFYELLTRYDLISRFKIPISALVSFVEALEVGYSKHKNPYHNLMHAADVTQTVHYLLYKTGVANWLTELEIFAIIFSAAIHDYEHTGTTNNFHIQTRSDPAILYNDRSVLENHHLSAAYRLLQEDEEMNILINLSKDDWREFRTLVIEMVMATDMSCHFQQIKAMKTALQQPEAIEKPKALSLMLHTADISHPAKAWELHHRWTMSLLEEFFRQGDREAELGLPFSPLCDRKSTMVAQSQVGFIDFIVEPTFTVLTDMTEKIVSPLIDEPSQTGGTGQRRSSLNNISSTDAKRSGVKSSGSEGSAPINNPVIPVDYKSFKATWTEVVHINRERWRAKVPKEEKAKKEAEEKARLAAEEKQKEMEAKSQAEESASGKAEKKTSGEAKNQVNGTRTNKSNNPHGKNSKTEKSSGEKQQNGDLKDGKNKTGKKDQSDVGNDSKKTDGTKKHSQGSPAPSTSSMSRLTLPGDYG
Epidermal growth factor receptor (Homo sapiens), sequence (P00533 whole entry): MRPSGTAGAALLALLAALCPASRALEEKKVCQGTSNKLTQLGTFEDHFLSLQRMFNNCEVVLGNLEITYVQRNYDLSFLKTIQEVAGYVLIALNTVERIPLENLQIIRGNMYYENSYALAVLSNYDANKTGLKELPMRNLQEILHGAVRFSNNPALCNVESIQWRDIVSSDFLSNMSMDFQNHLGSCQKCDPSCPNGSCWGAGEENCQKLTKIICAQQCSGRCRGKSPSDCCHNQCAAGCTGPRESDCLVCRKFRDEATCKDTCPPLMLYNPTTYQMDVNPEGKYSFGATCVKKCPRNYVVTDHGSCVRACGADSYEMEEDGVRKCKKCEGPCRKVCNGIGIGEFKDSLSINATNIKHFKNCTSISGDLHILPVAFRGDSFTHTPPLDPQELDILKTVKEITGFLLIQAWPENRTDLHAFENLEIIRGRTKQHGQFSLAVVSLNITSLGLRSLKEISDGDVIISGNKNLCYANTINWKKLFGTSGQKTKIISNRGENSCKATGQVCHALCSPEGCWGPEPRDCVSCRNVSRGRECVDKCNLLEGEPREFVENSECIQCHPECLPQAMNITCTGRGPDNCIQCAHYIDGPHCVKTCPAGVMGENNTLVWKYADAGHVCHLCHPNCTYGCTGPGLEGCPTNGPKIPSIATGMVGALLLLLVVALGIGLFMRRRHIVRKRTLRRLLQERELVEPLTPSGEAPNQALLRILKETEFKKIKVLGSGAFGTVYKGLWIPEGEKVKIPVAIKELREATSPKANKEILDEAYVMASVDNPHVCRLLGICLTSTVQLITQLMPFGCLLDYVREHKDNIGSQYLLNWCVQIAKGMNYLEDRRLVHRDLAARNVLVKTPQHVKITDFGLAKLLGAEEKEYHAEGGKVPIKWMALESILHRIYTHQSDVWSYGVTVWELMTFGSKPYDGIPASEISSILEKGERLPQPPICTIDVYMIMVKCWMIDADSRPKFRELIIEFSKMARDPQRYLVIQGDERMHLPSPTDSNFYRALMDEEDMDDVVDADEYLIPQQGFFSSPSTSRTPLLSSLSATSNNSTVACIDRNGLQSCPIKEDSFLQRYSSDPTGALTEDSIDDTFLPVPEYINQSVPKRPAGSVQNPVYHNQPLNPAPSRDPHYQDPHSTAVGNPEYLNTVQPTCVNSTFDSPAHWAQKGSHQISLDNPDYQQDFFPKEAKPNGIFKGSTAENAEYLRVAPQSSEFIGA
Caspase-1 (Homo sapiens), sequence (P29466 120-297 limits assumed): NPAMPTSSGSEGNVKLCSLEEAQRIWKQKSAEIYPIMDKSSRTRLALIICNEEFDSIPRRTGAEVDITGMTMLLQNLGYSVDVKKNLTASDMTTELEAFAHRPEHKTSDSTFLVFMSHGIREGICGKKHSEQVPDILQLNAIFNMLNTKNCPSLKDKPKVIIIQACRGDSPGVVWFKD
Caspase-1 (Homo sapiens), sequence (P29466 317-404 limits assumed): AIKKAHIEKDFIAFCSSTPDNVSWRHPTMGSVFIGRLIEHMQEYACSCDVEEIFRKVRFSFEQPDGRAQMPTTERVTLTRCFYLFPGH
Neuromedin-K receptor (Homo sapiens), sequence (P29371 whole entry): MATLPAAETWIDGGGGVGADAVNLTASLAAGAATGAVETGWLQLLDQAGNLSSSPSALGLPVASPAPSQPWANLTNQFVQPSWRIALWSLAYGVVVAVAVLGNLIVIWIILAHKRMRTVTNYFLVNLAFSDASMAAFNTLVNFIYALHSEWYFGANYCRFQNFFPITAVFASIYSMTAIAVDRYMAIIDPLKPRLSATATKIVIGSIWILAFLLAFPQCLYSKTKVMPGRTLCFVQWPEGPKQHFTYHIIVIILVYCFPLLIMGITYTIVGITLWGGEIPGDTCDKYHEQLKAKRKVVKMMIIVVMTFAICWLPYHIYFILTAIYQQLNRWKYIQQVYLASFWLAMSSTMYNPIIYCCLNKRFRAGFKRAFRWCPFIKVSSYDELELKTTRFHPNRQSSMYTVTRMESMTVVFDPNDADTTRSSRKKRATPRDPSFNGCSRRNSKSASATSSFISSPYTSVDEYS
D(1B) dopamine receptor (Homo sapiens), sequence (P21918 whole entry): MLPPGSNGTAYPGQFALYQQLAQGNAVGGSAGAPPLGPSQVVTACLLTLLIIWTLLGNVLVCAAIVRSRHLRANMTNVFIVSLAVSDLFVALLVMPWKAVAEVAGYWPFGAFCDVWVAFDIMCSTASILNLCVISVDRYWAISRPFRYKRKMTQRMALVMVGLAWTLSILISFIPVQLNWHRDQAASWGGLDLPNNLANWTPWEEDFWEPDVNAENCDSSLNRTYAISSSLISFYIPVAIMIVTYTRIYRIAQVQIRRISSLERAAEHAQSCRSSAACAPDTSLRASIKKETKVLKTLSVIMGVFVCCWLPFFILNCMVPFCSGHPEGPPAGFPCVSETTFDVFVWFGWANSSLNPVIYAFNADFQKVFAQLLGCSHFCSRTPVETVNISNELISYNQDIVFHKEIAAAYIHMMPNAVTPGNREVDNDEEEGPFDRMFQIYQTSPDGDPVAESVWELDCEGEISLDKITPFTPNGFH
Histamine H4 receptor (Homo sapiens), sequence (Q9H3N8 whole entry): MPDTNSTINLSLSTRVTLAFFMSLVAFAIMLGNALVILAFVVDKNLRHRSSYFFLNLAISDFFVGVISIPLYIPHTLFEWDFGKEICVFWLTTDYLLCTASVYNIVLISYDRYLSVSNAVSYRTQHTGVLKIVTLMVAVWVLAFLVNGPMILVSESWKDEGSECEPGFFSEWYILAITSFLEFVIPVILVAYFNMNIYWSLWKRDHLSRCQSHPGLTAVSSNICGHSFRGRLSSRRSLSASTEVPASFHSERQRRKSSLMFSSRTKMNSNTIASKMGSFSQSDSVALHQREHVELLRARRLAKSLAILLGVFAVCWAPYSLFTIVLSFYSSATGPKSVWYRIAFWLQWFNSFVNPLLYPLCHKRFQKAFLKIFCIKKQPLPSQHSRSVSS

For N#CC1(c2ccccn2)CCN(Cc2cc(C(=O)O)c(=O)n3ccccc23)CC1 [MSD-M1PAM], the inhibition [1] was -2.87%, the inhibition at 10 µM [2] was 1% (not active) and the inhibition [3] was 1%. It also gave an inhibition [4] of 4%, an inhibition [5] of -6% and an inhibition [6] of 5%. The inhibition [7] was 8%, the inhibition [8] was -1% and the inhibition [9] was 8%. For the same compound, the inhibition ([10]; Compound concentration 0.01 uM) was -4%, the inhibition ([10]; Compound concentration 0.1 uM) was -5% and the inhibition ([10]; Compound concentration 1.0 uM) was 4%. It also gave an inhibition ([10]; Compound concentration 10.0 uM) of 50%, an IC50 [11] of 10 µM and an inhibition [12] of 10%. It also gave an inhibition [13] of -10%, an inhibition [14] of 7% and an inhibition [15] of 14%. The inhibition [16] was 21%, the inhibition [17] was 9% and the inhibition [18] was 25%. The inhibition [19] was -6%, the inhibition [20] was 11% and the inhibition [21] was 28%. The inhibition [22] was 8%, the inhibition [23] was -9% and the inhibition [24] was 7%. For the same compound, the inhibition at 75 min, 10 µM [25] was 5% (not active), the inhibition [26] was 17% and the Agonism inflection point [27] was 7.38 µM. For the same compound, the inhibition [28] was 21%.
Compound N#CC1(c2ccccn2)CCN(Cc2cc(C(=O)N3CCCC3)c(=O)n3ccccc23)CC1 has a residual activity [29] of 73%.
